Measurements from patent US20160106802A1, “METHODS OF DIAGNOSING AND TREATING ASTHMA” (Alba Therapeutics Corporation, priority 2006, published 2016).
“Also recorded” adds a separate entry of the source. Ends that are not written are not given here.

Tested on: zonulin receptor
Experiment: In situ immunofluorescence microscopy of lung tissue sections with FITC-labeled peptides
Format: binding
Conditions: mouse lung sections (4 μm, frozen blocks) incubated with FITC-labeled peptide; FIG. 1
Method: In situ immunofluorescence microscopy was used to establish the distribution of the zonulin receptor within the respiratory tract. Lung tissue sections (4 μm) made from frozen blocks were placed immediately on plain uncoated slides and incubated with either FITC-labeled FZI/0 (the zonulin synthetic peptide inhibitor that specifically binds to the zonulin receptor described in U.S. Pat. No. 6,458,925, Gly-Gly-Val-Leu-Val-Gln-Pro-Gly SEQ ID NO: 15) or FITC-labeled FZI/1 (a scrambled peptide described in U.S. Pat. No. 6,458,925, Val-Gly-Val-Leu-Gly-Arg-Pro-Gly SEQ ID NO: 25) The results are shown in FIG. 1.

Sequence: GGVLVQPG [FZI/0]
- immunofluorescence signal of FITC-labeled peptide bound to lung tissue sections: Clusters of immunofluorescent FZI/0 particles were visualized; also recorded: Cluster of immunofluorescence FZI/0 particles were visualized

Sequence: VGVLGRPG [FZI/1, a scrambled peptide described in U.S. Pat. No. 6,458,925, reference compound]
- immunofluorescence signal of FITC-labeled peptide bound to lung tissue sections: no signal was detected
